We go through seven compounds from patent US9682985B2, “(Indazol-4-yl) hexahydropyrrolopyrrolones and methods of use” (AbbVie Inc., priority 2015, dated 2017).

Test [1] has as its system SNL-induced neuropathic pain in rats. As to the kind of experiment: Rat spinal nerve ligation (SNL) model of neuropathic pain, paw withdrawal threshold. In kind it is in vivo. The note with it: SNL dose 100 mg/kg. The source says:
Rat Spinal Nerve Ligation (SNL) Model of Neuropathic Pain.
A model of spinal nerve ligation-induced (SNL model) neuropathic pain as originally described by Kim and Chung (Kim, S. H. and J. M. Chung, 1992, Pain 50, 355) was used to test a compound of the present application. The male Sprague Dawley rats (Charles River Laboratories, Wilmington, Mass.), weighing 150-175 g at the time of surgery, were placed under isoflurane anesthesia and a 1.5 cm incision was made dorsal to the lumbosacral plexus. The paraspinal muscles (left side) were separated from the spinous processes, the left L5 and L6 spinal nerves isolated, and tightly ligated with 5-0 silk suture distal to the dorsal root ganglion. Care was taken to avoid ligating the L4 spinal nerve. Following spinal nerve ligation, a minimum of 7 days of recovery and no more than 3 weeks was allowed prior to the behavioral testing (mechanical sensitivity). Only rats with threshold scores ≦4.5 g were considered allodynic and utilized in pharmacological experiments.
Mechanical sensitivity was measured using calibrated von Frey filaments (Stoelting, Wood Dale, Ill.). Paw withdrawal threshold (PWT) was determined by using the Dixon's up-down method (Dixon, W. J., 1980, Ann. Rev. Pharmacol. Toxicol., 20, 441). Rats were placed into inverted individual plastic containers (20×12.5×20 cm) on top of a suspended wire mesh with a 1 cm^2 grid to provide access to the ventral side of the hind paws, and acclimated to the test chambers for 20 minutes. The von Frey filaments were presented perpendicularly to the plantar surface of the selected hind paw, and then held in this position for approximately 8 seconds with enough force to cause a slight bend in the filament. […] A 50% withdrawal threshold was determined using an up-down procedure (Dixon, 1980). A percent maximal possible effect (% MPE) of testing compound was calculated according to the formula: (Log [compound−treated threshold]−Log [vehicle−treated threshold])/(Log [maximum threshold]−Log [vehicle-treated threshold])×100%, where the maximum threshold was equal to 15 g. […]

Test [2] deals with MIA-induced osteoarthritic pain in rats. As to the kind of experiment: Osteoarthritic (OA) pain induced by sodium monoiodoacetate (MIA), hind limb grip force. In kind it is in vivo. Conditions: rat MIA-OA, 20 days after MIA. How it is done: Osteoarthritic (OA) Pain Induced by Sodium Monoiodoacetate (MIA)
Pain behavior was assessed by measurement of hind limb grip force (GF) in adult osteoarthritic rats. Male Sprague Dawley rats, obtained from Charles River Laboratories, (Wilmington, Mass.), weighing 150-175 g, were injected in the unilateral knee join with a single intra-articular injection of sodium monoiodoacetate (MIA, 3 mg/rat). All rats were tested at 20 days following MIA injection. A behavioral measure of activity-induced pain was carried out. Measurements of the peak hind limb grip force were conducted by recording the maximum compressive force (CFmax), in grams of force, exerted on a hind limb strain gauge setup, in a commercially available grip force measurement system (Columbus Instruments, Columbus, Ohio).
During testing, each rat was gently restrained by grasping it around its rib cage and then allowed to grasp the wire mesh frame attached to the strain gauge. The experimenter then moved the animal in a rostral-to-caudal direction until the grip was broken. Each rat was sequentially tested twice at an approximately 2-3 minute interval to obtain a raw mean grip force (CFmax). This raw mean grip force data was in turn converted to a maximum hindlimb cumulative compressive force (CFmax), as the grams of force/kg of body weight, for each animal.
For evaluating the compound effects, the hind limb grip force was conducted 20 days following the intra-articular injection of MIA. A group of age-matched naïve (not injected with MIA) animals was added as a comparator to the drug-dosed groups. The vehicle control response for each group of MIA-treated animals was defined as the 0% response (0% effect), whereas the naïve control group was defined as the normal response and as 100% effect. The % effect for each dose group was expressed as % return of response to normalcy, compared to the naïve group. A percent maximal possible effect (% MPE) of testing compound was calculated according to the formula: (Treatment CFmax Vehicle CFmax)/Vehicle CFmax]×100). Higher % effect numbers indicate increased relief from the pain in the model, with 100% indicating a return to the level of response seen in normal (non-osteoarthritic) animals. All experiments evaluating drug effects in this model were conducted in a randomized blinded fashion.
The animals were housed in Association for Assessment and Accreditation of Laboratory Animal Care (AAALAC) approved facilities at AbbVie Inc. in a temperature-regulated environment under a controlled 12-hour light-dark cycle, with lights on at 6:00 a.m. Food and water were available ad libitum at all times except during testing. All testing was done following procedures outlined in protocols approved by AbbVie Inc.'s Institutional Animal Care and Use Committee.

Another test concerns the target T1, hERG channel (Kv11.1) (Homo sapiens, UniProt Q12809).
T1 construct: W. January (Wisconsin Alumni Research Foundation); host or cells: HEK-293
As to the kind of experiment: hERG QPatch screening protocol (hERG current block). The note with it: HEK-293 cells stably transfected with hERG; tail current; room temperature. The test is classed as cell-based. How it is done:
hERG QPatch Screening Protocol
Solutions and Compound Plates:
The bath solution contained (in mM): 140 NaCl, 5 KCl, 1 MgCl2, 2 CaCl2, 5 glucose, 20 HEPES, pH=7.4. The internal solution contained (in mM): 125 K-aspartate, 20 KCl, 10 EGTA, 5 MgATP, 1 MgCl2, 5 HEPES, pH=7.3.
Compound plates were prepared with an acoustic liquid handler (Echo® 550, Labcyte), using 384-well source plates and 96-well destination plates. Compounds were delivered to the destination plates as 300 nL spots in half-log increments (1, 3, 10 and 30 mM), dissolved in dimethyl sulfoxide. Plates were solvated with bath solution (300 μL) to final concentrations (1, 3, 10 and 30 μM; 0.1% dimethyl sulfoxide) and added to the QPatch workstation.
Cells and Cell Preparation:
Human embryonic kidney (HEK-293) cells, stably transfected with the hERG channel, were obtained from Dr. C. W. January (Wisconsin Alumni Research Foundation). Cells were initially maintained at 37° C. (5% CO2 atmosphere) in MEM supplemented media. Cells were cryo-preserved in 10% dimethyl sulfoxide, 90% fetal bovine serum at 10 M cells/mL. For electrophysiological studies, cells were thawed, resuspended in media at 1.0-1.5 M cells/mL and placed on the QPatch workstation.
QPatch Electrophysiology Workstation and Experimental Protocol:
Currents were recorded using QPatch HT (Sophion), an automated planar patch-clamp system. The QPatch uses forty-eight amplifiers and a 48-chamber QPlate positioned directly on top of the headstage. To obtain high resistant seals, cells are added to each chamber and allowed to settle for 10 seconds. Negative pressure is then applied to promote cell delivery to the patch chip openings on the chamber bottom. After formation of GΩ seals, negative pressure ramps are applied to obtain intracellular access. Access resistance was initially optimized by additional pressure ramps to assure the intracellular access was adequate for voltage clamp experiments (targeted access resistance <10 MΩ). Whole-cell compensation and series resistance compensation were used at 60% (both predicted and corrected). Experiments using QPatch were conducted at room temperature.
A single application of each concentration was applied to cells. During a five-minute wash-in period, a four-second depolarizing pulse to +20 mV, followed by a five-second repolarizing pulse to −50 mV was applied once every 15 seconds from a holding potential of −80 mV. Cells were exposed to four ascending concentrations of drug in half-log intervals.
Evaluation of hERG Current Block:
hERG tail current was measured as the difference in amplitude between a […] and the end of a five-second test pulse to −50 mV, preceded by a four-second pulse to +20 mV. The hERG IC50 values for compounds were determined from tail current analysis. The IC50 was calculated with a logistic fitting routine using the following equation: y=[(A1−A2)/(1+(x/IC50))^p]A2, where A1=initial×value, A2=final×value and p=power.

A further test has as its target T2, recombinant human Nav1.7 (Homo sapiens, UniProt Q15858).
T2 construct: expressed in transfected cells; host or cells: HEK293
As to the kind of experiment: FRET-based membrane potential assay, Nav1.7. Conditions: HEK293 cells expressing recombinant human Nav1.7; veratridine + scorpion venom depolarization. The test is classed as cell-based.

The next test concerns the target T3, recombinant human Nav1.8 (Homo sapiens, UniProt Q9Y5Y9).
T3 construct: host or cells: HEK293
As to the kind of experiment: FRET-based membrane potential assay, Nav1.8. The note with it: HEK293 cells expressing recombinant human Nav1.8; veratridine + scorpion venom depolarization. In kind it is cell-based.

T3 sequence (Q9Y5Y9 whole entry): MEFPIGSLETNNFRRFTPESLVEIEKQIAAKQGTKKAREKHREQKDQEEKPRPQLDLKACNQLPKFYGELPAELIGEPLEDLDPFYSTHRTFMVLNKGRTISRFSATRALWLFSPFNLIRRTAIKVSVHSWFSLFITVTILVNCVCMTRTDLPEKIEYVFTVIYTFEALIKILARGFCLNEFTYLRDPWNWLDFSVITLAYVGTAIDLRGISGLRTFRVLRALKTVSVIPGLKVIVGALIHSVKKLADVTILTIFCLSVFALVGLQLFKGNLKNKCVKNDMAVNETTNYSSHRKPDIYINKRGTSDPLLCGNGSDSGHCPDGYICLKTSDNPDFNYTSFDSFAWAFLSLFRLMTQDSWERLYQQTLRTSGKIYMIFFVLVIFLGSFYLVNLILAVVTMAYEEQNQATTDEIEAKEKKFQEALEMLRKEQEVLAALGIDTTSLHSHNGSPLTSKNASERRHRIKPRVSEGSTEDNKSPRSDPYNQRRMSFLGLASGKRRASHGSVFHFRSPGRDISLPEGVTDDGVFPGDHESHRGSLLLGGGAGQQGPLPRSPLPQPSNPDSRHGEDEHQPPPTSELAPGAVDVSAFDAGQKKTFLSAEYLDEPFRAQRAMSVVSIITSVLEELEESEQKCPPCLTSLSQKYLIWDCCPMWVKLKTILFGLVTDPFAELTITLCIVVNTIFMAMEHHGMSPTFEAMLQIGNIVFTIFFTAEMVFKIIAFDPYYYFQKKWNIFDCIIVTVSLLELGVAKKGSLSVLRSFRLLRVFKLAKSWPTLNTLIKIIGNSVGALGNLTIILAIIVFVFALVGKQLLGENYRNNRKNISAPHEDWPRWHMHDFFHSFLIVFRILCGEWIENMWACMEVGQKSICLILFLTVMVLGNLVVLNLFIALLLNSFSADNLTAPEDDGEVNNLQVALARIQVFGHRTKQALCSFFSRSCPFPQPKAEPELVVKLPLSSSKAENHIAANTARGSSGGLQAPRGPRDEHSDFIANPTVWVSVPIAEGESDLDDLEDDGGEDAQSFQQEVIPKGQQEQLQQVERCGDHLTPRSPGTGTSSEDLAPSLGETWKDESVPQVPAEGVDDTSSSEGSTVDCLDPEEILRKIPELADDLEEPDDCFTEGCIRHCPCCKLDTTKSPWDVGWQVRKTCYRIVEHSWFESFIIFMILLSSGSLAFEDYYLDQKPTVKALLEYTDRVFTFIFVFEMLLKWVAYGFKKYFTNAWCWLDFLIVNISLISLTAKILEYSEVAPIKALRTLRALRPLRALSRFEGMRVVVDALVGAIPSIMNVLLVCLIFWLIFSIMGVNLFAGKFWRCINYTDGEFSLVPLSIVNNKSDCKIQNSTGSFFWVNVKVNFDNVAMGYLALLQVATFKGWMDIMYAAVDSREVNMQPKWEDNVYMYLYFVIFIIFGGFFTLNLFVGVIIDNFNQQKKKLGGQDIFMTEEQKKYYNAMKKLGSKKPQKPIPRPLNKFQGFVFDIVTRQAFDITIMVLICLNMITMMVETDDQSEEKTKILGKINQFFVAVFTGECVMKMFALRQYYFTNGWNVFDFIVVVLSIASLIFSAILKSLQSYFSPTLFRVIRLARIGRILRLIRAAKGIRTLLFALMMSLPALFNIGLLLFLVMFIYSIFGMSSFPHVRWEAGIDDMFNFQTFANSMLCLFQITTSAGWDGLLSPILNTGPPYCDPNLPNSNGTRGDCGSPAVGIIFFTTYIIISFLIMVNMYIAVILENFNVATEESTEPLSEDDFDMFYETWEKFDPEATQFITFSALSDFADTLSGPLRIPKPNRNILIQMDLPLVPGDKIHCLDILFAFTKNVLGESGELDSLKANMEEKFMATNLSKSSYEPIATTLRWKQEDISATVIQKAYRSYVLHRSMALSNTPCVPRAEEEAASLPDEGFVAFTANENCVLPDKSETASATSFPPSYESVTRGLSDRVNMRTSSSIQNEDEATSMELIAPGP
T2 sequence (Q15858 whole entry): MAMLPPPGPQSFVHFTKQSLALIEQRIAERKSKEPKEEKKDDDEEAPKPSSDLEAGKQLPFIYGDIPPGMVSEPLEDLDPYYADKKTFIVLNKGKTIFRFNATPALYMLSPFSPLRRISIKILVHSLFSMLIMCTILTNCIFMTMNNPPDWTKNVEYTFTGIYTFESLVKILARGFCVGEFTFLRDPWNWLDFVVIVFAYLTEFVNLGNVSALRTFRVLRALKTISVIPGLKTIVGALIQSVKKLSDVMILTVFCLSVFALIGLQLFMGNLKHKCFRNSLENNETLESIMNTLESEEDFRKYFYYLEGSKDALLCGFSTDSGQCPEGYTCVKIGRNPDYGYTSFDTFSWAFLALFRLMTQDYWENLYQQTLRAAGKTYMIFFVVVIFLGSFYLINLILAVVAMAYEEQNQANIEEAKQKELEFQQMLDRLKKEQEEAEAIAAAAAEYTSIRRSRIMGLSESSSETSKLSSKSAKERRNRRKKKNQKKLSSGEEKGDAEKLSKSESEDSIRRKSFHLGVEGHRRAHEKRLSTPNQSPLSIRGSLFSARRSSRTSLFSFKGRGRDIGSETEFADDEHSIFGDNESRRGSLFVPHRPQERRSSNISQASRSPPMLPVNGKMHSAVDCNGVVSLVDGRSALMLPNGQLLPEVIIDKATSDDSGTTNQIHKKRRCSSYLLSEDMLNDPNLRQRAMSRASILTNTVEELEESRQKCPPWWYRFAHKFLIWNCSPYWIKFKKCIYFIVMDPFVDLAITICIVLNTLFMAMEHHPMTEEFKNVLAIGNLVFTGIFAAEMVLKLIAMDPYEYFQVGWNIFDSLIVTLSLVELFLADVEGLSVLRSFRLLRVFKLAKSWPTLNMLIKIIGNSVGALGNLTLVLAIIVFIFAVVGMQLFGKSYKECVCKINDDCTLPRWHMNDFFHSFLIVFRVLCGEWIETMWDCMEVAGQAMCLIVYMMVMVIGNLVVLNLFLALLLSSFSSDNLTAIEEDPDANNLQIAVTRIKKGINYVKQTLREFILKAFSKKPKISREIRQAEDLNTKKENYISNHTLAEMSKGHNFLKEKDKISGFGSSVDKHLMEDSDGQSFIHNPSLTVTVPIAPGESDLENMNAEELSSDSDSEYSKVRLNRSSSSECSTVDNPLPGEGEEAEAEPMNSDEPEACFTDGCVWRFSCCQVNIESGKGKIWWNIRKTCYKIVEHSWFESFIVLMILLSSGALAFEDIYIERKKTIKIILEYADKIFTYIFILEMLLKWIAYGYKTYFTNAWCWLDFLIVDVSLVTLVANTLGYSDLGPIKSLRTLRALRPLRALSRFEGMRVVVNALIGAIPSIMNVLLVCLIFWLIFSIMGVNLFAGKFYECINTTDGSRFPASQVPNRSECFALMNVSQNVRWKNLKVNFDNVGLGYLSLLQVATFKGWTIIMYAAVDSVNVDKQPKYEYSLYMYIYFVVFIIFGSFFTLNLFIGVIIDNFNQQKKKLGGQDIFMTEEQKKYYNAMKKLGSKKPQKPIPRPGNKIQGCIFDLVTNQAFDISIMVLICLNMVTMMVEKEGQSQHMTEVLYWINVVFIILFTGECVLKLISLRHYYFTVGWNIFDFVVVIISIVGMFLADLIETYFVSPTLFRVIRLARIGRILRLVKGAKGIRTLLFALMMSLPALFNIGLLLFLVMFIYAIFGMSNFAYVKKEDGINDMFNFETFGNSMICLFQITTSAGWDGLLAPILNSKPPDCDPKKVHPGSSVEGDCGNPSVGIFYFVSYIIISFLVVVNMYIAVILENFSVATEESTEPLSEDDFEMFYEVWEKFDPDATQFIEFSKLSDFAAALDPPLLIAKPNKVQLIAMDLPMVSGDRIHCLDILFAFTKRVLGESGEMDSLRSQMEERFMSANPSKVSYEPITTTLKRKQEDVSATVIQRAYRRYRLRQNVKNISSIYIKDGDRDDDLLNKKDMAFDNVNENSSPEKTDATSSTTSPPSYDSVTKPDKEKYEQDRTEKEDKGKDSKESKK
T1 sequence (Q12809 whole entry): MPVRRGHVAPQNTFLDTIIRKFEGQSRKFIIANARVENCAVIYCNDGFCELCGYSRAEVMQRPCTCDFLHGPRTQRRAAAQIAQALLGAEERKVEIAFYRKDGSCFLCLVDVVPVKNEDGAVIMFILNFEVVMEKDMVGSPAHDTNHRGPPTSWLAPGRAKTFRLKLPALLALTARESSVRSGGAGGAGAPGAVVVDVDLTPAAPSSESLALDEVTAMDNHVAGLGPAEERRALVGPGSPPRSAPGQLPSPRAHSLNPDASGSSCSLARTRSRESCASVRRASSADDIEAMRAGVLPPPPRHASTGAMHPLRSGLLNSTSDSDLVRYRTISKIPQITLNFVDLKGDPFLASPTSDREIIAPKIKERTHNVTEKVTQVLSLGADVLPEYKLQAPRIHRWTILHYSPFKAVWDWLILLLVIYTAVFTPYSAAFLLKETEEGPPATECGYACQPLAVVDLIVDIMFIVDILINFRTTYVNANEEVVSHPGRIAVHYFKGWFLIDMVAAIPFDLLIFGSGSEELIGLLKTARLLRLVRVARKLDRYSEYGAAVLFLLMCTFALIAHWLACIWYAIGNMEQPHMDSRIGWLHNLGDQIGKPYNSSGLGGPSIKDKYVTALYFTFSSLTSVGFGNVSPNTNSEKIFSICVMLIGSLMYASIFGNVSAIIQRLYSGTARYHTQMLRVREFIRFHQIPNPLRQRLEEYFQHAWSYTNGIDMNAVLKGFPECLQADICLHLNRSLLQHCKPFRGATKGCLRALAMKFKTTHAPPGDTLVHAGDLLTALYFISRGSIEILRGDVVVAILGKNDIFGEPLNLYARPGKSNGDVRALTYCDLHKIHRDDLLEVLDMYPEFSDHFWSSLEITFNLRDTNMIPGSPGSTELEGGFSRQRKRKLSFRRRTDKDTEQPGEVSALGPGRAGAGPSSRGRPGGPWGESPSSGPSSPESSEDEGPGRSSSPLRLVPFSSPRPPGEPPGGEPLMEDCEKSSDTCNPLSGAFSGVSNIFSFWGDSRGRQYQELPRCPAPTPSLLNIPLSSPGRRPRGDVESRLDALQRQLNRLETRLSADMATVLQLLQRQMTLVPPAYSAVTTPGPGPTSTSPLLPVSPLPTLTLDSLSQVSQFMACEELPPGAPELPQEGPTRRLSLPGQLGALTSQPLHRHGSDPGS

Take `O=C(CC1CCCO1)N1C[C@@H]2CN(c3cccc4c3cnn4-c3ccccc3F)C(=O)[C@H]2C1` (relative stereo) [Example 10, rel-(3aR,6aR)-2-[1-(2-fluorophenyl)-1H-indazol-4-yl]-5-(tetrahydrofuran-2-ylacetyl)hexahydropyrrolo[3,4-c]pyrrol-1(2H)-one]: the “SNL MPE” value in test [1] is given as 59%. Besides, the “OA MPE” value in test [2] (OA dose 10 mg/kg) worked out at 74%. Further, the IC50 against hERG channel (Kv11.1) was more than 30 µM; on recombinant human Nav1.7 it was 2.07 µM.
As to `CC(C)(O)CC(=O)N1CC[C@@H]2CN(c3cccc4c3cnn4-c3ccccc3F)C(=O)[C@@H]21` (single isomer, unassigned) [Example 1], the “OA MPE” value in test [2] (OA dose 30 mg/kg) worked out at 70%. Further, the IC50 on recombinant human Nav1.8 was 2.79 µM; against hERG channel (Kv11.1), more than 30 µM.
Consider `CC(C)(O)CC(=O)N1CC[C@H]2CN(c3cccc4c3cnn4-c3ccccc3F)C(=O)[C@H]21` (single isomer, unassigned) [Example 2], for which the “OA MPE” value in test [2] (OA dose 30 mg/kg) worked out at 62%. Also, the concentration for half-maximal inhibition (IC50) at recombinant human Nav1.8 is 2.38 µM; on hERG channel (Kv11.1) it was more than 30 µM.
For the compound `CC(C)S(=O)(=O)N1C[C@@H]2CN(c3cccc4c3cnn4-c3ccccc3F)C(=O)[C@@H]2C1` [Example 24, (3aS,6aS)-2-[1-(2-fluorophenyl)-1H-indazol-4-yl]-5-(isopropylsulfonyl)hexahydropyrrolo[3,4-c]pyrrol-1 (2H)-one], the “OA MPE” value in test [2] (OA dose 10 mg/kg) came to 66%. Further, the IC50 at recombinant human Nav1.8 was determined as 0.59 µM; against hERG channel (Kv11.1), 17 µM; at recombinant human Nav1.7 it was 1.98 µM.
As for `O=C(C1CCOC1)N1C[C@@H]2CN(c3cccc4c3cnn4-c3ccccc3F)C(=O)[C@@H]2C1` (stereo partly drawn) [Example 32, (3aR,6aS)-2-[1-(2-fluorophenyl)-1H-indazol-4-yl]-5-(tetrahydrofuran-3-ylcarbonyl)hexahydropyrrolo[3,4-c]pyrrol-1(2H)-one], the “OA MPE” value in test [2] (OA dose 10 mg/kg) amounted to 9%. Moreover, the half-maximal inhibitory concentration (IC50) at hERG channel (Kv11.1) was found to be 7.43 µM; on recombinant human Nav1.7, 1.69 µM.
For `C[C@H](O)CC(=O)N1C[C@H]2CN(c3cccc4c3cnn4-c3ccccc3F)C(=O)[C@H]2C1` [Example 34, (3aS,6aR)-2-[1-(2-fluorophenyl)-1H-indazol-4-yl]-5-[(3S)-3-hydroxybutanoyl]hexahydropyrrolo[3,4-c]pyrrol-1(2H)-one], the “SNL MPE” value in test [1] was 60%. In addition, the “OA MPE” value in test [2] (OA dose 30 mg/kg) was 85%. Moreover, the IC50 on recombinant human Nav1.8 is 8.36 µM; against hERG channel (Kv11.1), more than 30 µM; on recombinant human Nav1.7 it was 9.91 µM.
Take `CC(C)(O)CC(=O)N1C[C@H]2CN(c3cccc4c3cnn4-c3ccccc3F)C(=O)[C@H]2C1` [Example 35, (3aS,6aR)-2-[1-(2-fluorophenyl)-1H-indazol-4-yl]-5-(3-hydroxy-3-methylbutanoyl)hexahydropyrrolo[3,4-c]pyrrol-1(2H)-one]: the “SNL MPE” value in test [1] worked out at 40%. Moreover, the “OA MPE” value in test [2] (OA dose 30 mg/kg) is on record as 99%.
